Measurements: paper PMC6017115, “Inhibitory Effect of Sauchinone on UDP-Glucuronosyltransferase (UGT) 2B7 Activity” (Molecules : A Journal of Synthetic Chemistry and Natural …, 2018)

Biological target: T1, UGT2B7 (Homo sapiens, UniProt P16662)
T1 sequence (P16662 24-529): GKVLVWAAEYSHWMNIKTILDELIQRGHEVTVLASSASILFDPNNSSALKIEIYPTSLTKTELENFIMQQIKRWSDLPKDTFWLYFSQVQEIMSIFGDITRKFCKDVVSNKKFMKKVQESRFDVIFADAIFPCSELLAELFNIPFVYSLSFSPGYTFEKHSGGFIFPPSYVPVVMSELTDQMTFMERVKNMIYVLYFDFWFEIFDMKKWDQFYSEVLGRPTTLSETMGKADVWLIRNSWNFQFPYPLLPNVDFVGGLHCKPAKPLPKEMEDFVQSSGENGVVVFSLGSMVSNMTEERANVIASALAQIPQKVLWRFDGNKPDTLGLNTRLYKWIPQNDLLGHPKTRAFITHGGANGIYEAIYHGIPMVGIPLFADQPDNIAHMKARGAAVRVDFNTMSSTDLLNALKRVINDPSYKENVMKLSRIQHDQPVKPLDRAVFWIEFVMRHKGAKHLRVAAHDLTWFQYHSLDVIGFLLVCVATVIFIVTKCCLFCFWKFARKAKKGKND
Assay: Inhibition of UGT2B7 (zidovudine glucuronidation) in human liver microsomes
Format: in vitro ADME
Design: tissue Corning Life Sciences 452156; host or cells: pooled human liver microsomes
Description: Their IC50 values were compared to that of sauchinone. […] UGT-mediated activities in the presence of sauchinone as an inhibitor were expressed as percentages of corresponding control values (in absence of sauchinone). From percentages of control activity versus inhibitor concentrations, a sigmoid shaped curve was fitted to the data and IC50 as an enzyme inhibition parameter was calculated by fitting the Hill equation to the data using GraphPad Prism 5 (GraphPad Software Inc., San Diego, CA, USA).

- IC50: 75.4 µM
Compound: O=C1Nc2ccc(Cl)cc2[C@@](C#CC2CC2)(C(F)(F)F)O1 [Efavirenz]
